Source: patent publication USRE48805E1, “Method for cancer targeting treatment and detection of arginine using albumin-binding arginine deiminase fusion protein” (Vision Global Holdings Ltd., priority 2013, dated 2021)

What was measured:
[1] = test system: Mia-paca-2 pancreatic cancer cell xenografts; assay: In vivo efficacy on Mia-paca-2 pancreatic cancer cell xenografts; design: species or system Nude balb/c mice (human pancreatic cancer xenograft); conditions: 100 mg/kg once a week, intraperitoneal, end of the time course
Method: Nude balb/c mice (4-6 weeks) are used and they are allowed to acclimatize for a week before the treatment. Mice are inoculated subcutaneously with 2×10^6 cancer cells in 100 μl of 1:1 PBS:Matrigel. Matrigel is used to augment the growth of tumors. Two weeks later, the mice are randomly separated into four groups of 4 animals in each group. Mice are intraperitoneally administered with PBS (control), AAD (5 U; twice a week), Gemcitabine, Gem (100 mg/kg; once a week) or AAD+Gem (a combination of both AAD and Gem) in 200 μl PBS. Tumor size is measured by caliper and tumor volume is calculated using formula: (length×width^2)/2. Body weight is measured every week. After the mice are sacrificed by end of the time course, the tumors are excised and weighed. […] The difference in the tumor size between control and AAD fusion protein-treatment group is about 60% at Day 28.

[2] = test system: 22Rv1 prostate cancer cell xenografts; assay: In vivo efficacy on 22Rv1 prostate cancer cell xenografts; design: species or system Nude balb/c mice (human prostate cancer xenograft); conditions: 10 mg/kg once a week, intraperitoneal
Method: Nude balb/c mice (4-6 weeks) are used and they are allowed to acclimatize for a week before the treatment. Mice are inoculated subcutaneously with 3×10^6 cancer cells in 100 μl PBS. Two weeks later, the mice are randomly separated into four groups of 5 animals in each group. Mice are intraperitoneally administered with PBS (control), AAD (5 U; twice a week), Docetaxel, DTX (10 mg/kg; once a week) or AAD+DTX (a combination of both AAD and DTX) in 200 ul PBS. Tumor size is measured by caliper and tumor volume is calculated using formula: (length×width^2)/2. Body weight is measured every week. After the mice are sacrificed by end of the time course, the tumors are excised and weighed.
The difference in the tumor size between control and AAD fusion protein- or DTX-treatment groups are about 55% and 54% at Day 22, respectively. Besides, the combination of AAD fusion protein and DTX-treatment group has a synergistic effect on tumor growth inhibition. Tumor growth of the combination treatment group is inhibited by about 94% when compared to that of the control group.

Structure (SMILES)	tumor size compared to control [1]	difference in the tumor size between control and DTX-treatment group ([2]; Day 22)	tumor size compared to control ([2]; end of the time course)
Nc1ccn([C@@H]2O[C@H](CO)[C@@H](O)C2(F)F)c(=O)n1 [Gemcitabine]	significantly lower than that in control	–	–
CC(=O)O[C@@]12CO[C@@H]1C[C@H](O)[C@@]1(C)C(=O)[C@H](O)C3=C(C)[C@@H](OC(=O)[C@H](O)[C@@H](NC(=O)OC(C)(C)C)c4ccccc4)C[C@@](O)([C@@H](OC(=O)c4ccccc4)[C@H]21)C3(C)C [docetaxel]	–	~54%	significantly lower than that in control
